# Measurements from patent US9440957B2, “Compounds and compositions for modulating EGFR Activity” (Novartis AG, priority 2012, dated 2016).
# pIC50: −log10 of the molar value. Read-outs that look alike come from different tables or passages of the source.
# Tests used:
# H3255 (EGFR L858R) = H3255 (EGFR L858R) (Homo sapiens, UniProt P00533, L858R); assay: EGFR target modulation in H3255 cell line (phospho-EGFR Y1173 ELISA); type: cell-based
# Procedure, shortened: (§1)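 Cells grown in 10% FBS/RPMI, plated overnight at 37 °C, then treated with serially diluted compounds for 3 h. Lysates were analysed by sandwich ELISA (anti-EGFR capture, chemiluminescent readout).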
# EGFR(L858R/T790M) = molecular target: T1, EGFR(L858R/T790M) (Homo sapiens, UniProt P00533, L858R/T790M); assay: EGFR biochemical assay (HTRF), IC50 determinations
# T1 construct: purchased from Carna (GST-a.a. 669-1210)
# T1 sequence (P00533 669-1210 T790M/L858R): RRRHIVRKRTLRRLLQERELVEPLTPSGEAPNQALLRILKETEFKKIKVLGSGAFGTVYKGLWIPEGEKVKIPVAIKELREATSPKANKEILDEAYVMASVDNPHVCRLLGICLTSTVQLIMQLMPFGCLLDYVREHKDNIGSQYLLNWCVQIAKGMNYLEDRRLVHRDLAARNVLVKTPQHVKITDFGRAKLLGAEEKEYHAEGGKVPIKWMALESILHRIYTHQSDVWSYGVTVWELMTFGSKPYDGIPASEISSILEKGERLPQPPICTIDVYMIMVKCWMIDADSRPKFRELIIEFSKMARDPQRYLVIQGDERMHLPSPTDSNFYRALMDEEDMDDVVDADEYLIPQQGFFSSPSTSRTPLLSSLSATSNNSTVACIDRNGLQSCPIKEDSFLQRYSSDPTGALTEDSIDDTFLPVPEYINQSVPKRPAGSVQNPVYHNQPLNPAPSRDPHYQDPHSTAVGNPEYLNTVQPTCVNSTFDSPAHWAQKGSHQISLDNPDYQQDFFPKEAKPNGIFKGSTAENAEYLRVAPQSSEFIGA
# Procedure, shortened: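 Two formats were run: compound preincubated at room temperature with enzyme and biotin-TK peptide before ATP starts the reaction, or no preincubation with enzyme added last. Reactions ran 60 min at room temperature and were stopped with EDTA. Phosphopeptide was read by HTRF (PT66K/SAXL, 1 h).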
# HaCaT (EGFR WT) = HaCaT (EGFR WT) (Homo sapiens, UniProt P00533); assay: EGFR target modulation in HaCaT (EGFR-WT) cell line (phospho-EGFR Y1173 ELISA); type: cell-based; conditions: value in parentheses
# Chain of HaCaT (EGFR WT) (P00533 25-1210): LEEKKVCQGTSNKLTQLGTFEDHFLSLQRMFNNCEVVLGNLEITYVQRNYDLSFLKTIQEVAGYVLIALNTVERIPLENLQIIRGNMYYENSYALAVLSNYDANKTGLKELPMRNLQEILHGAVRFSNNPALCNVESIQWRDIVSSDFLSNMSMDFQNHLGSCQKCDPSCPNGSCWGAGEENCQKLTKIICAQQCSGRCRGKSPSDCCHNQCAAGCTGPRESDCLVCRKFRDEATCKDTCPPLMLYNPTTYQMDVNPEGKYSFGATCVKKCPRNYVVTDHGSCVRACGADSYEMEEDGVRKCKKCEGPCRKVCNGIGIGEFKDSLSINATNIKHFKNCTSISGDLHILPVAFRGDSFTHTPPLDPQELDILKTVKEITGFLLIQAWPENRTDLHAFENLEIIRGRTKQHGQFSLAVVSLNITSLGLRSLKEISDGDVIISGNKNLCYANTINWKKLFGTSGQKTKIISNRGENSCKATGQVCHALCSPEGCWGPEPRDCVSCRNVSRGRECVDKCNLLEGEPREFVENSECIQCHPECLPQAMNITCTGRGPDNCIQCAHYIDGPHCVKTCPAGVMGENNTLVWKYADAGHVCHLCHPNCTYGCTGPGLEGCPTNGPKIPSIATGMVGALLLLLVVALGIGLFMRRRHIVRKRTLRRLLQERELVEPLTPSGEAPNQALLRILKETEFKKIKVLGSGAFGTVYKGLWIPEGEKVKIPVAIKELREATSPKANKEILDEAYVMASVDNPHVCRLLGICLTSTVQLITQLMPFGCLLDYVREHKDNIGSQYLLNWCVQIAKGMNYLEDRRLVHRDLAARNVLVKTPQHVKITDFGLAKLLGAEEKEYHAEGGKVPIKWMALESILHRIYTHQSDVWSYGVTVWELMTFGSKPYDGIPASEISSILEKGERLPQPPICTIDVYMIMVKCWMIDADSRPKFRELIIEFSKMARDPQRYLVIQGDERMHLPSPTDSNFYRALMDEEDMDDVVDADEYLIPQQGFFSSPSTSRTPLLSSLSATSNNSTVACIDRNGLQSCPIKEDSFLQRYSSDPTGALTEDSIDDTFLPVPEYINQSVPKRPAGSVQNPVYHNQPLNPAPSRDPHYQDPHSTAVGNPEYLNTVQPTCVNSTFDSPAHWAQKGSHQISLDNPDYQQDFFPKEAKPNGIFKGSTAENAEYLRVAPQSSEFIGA
# Procedure: EGFR Target Modulation in HaCaT (EGFR-WT) Cell Line Tissue Culture. […] The serial diluted compounds were transferred to the plate containing cells by using a 50 nl Pin Head device (Perkin Elmer) and the cells were placed back in the incubator for 3 hours. […] Phospho-EGFR ([…]) ELISA. Solid white high-binding ELISA plates (Greiner #781074) were coated with 5 ug/ml anti-EGFR capture antibody (R&D Systems #AF231) overnight in 50 mM carbonate/bicarbonate pH 9.5 buffer. […] Wash steps were carried out with a Bio-Tek ELx405 SelectTM using 4 cycles of 100 ul TBS-T (20 mM Tris, 137 mM NaCl, 0.05% Tween-20) per well. […] Lysis was allowed to occur for 20 minutes on ice. A 25 ul aliquot was added to each well of the blocked ELISA plate and incubated overnight at 4° C. with gentle shaking. […] After washing, 1:2,000 anti-rabbit-HRP (Cell Signaling #7074) in 0.2% BSA/TBS-T was added and incubated for 1 hour at room temperature. Chemiluminescent detection was carried out with SuperSignal ELISA Pico substrate (ThermoScientific #37069). Signal was read on EnVision plate reader using built-in UltraLUM setting. Data Analysis. Control cells treated with EGF were set to 100% maximum response. […] With these parameters, the IC50's for each compound in each cell line was calculated using non-linear curve fitting analysis.
# H1975 (EGFR L858/T790M) = H1975 (EGFR L858/T790M) (Homo sapiens, UniProt P00533, L858R/T790M); assay: EGFR target modulation in H1975 cell line (phospho-EGFR Y1173 ELISA); type: cell-based
# Chain of H1975 (EGFR L858/T790M) (P00533 25-1210 T790M/L858R): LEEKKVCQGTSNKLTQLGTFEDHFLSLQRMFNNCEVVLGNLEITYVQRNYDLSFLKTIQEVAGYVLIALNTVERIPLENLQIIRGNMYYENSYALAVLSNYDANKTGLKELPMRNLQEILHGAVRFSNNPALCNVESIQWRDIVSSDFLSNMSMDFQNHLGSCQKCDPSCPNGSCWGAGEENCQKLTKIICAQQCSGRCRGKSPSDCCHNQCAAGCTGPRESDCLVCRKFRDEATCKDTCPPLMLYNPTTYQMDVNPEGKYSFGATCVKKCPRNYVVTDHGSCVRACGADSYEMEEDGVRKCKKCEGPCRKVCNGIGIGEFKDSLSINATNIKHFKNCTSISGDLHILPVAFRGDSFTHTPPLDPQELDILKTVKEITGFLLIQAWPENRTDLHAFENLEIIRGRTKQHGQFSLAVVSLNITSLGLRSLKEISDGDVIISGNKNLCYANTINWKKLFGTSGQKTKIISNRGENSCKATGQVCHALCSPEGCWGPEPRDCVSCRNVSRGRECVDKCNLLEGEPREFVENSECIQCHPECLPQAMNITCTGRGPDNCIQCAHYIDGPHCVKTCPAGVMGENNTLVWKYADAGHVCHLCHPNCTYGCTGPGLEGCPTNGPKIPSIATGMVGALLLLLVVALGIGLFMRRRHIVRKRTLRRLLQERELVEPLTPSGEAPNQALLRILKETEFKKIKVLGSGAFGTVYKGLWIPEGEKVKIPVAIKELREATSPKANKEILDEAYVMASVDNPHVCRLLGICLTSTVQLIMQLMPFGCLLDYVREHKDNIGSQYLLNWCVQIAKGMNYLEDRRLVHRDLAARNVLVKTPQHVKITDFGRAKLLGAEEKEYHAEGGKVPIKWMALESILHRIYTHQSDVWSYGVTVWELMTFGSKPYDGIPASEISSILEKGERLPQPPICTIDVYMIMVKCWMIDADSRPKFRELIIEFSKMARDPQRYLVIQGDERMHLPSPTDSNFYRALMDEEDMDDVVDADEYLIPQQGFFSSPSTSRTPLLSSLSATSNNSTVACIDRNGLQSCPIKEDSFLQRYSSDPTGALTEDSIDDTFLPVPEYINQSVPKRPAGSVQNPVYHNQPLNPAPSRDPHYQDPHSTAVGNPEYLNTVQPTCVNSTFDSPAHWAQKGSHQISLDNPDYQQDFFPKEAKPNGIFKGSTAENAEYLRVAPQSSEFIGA
# Procedure, shortened: as §1
# HEKn (EGFR WT) = HEKn (EGFR WT) (Homo sapiens, UniProt P00533); assay: EGFR target modulation in HEKn (EGFR-WT) cell line (phospho-EGFR Y1173 ELISA); type: cell-based; conditions: value outside parentheses
# Procedure, shortened: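 Read-out was Y1173 phosphorylation, measured by chemiluminescent ELISA with anti-EGFR capture of lysates. HEKn keratinocytes (wild-type EGFR) were treated with compound for 3 h.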
# HCC827 (Del E746-A750) = HCC827 (Del E746-A750) (Homo sapiens, UniProt P00533, DEL746-750); assay: EGFR target modulation in HCC827 cell line (phospho-EGFR Y1173 ELISA); type: cell-based
# Procedure, shortened: as §1
# [1] = EGFR (L858R/T790M) with 90 min pre-incubation, read-out: IC50 (μM) Column B
# [2] = EGFR (L858R/T790M) with no pre-incubation, read-out: IC50 (μM) Column A
# Chain of H3255 (EGFR L858R) (P00533 25-1210 L858R): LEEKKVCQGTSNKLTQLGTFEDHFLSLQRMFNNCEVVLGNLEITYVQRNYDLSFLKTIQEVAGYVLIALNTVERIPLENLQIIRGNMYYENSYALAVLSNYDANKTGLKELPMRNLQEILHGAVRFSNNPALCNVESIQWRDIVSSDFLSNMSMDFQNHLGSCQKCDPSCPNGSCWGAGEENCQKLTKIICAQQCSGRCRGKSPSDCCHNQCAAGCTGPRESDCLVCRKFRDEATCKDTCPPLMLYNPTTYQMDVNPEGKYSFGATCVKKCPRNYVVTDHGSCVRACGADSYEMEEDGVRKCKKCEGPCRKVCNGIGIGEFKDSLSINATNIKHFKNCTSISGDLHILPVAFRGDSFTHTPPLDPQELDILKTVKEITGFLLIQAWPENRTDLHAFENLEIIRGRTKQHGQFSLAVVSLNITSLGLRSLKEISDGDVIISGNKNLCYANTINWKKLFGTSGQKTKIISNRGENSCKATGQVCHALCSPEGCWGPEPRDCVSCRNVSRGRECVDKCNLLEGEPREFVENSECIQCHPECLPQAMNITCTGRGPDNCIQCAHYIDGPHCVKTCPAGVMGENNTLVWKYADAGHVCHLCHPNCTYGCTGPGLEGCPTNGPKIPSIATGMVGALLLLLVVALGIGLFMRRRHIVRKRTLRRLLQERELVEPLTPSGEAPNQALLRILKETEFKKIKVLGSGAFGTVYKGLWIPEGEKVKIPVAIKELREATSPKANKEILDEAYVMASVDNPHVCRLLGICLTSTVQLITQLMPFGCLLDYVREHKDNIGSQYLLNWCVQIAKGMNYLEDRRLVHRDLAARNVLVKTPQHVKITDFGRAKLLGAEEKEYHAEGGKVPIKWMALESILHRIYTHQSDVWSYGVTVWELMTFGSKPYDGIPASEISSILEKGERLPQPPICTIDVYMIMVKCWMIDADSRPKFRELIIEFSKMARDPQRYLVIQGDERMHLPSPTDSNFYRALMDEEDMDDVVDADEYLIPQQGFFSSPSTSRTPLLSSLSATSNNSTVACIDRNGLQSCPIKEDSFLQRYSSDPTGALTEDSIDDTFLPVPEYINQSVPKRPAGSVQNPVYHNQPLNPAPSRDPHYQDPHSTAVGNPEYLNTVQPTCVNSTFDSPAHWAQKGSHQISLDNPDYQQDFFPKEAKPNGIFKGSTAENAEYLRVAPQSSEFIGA
pIC50 (H3255 (EGFR L858R)),IC50 (EGFR(L858R/T790M); [1]) [µM],IC50 (EGFR(L858R/T790M); [2]) [µM],pIC50 (HaCaT (EGFR WT)),pIC50 (H1975 (EGFR L858/T790M)),pIC50 (HEKn (EGFR WT)),pIC50 (HCC827 (Del E746-A750)),SMILES
8.00,< 0.001,0.004,6.67,8.70,6.54,8.70,CNC/C=C/C(=O)N1CCCC[C@@H](n2c(NC(=O)c3cc(C)nc(C)c3)nc3cccc(Cl)c32)C1 [Example 17-186]
6.14,0.108,0.135,< 5.00,5.98,–,6.32,Cc1cc(C(=O)Nc2nc3cccc(Cl)c3n2[C@@H]2CCCCN(C(=O)/C=C/C(C)(C)N(C)C)C2)ccn1 [Example 3-18]
7.85,0.001,0.022,6.32,7.89,–,8.70,Cc1cc(C(=O)Nc2nc3cccc(C(F)(F)F)c3n2[C@@H]2CCCCN(C(=O)/C=C/CN(C)C)C2)ccn1 [Example 17-187]
8.70,< 0.001,0.002,7.36,9.00,7.36,9.00,CNC/C=C/C(=O)N1CCCC[C@@H](n2c(NC(=O)c3ccnc(C)c3)nc3cccc(Cl)c32)C1 [Example 17-185]
7.41,0.003,0.04,6.06,7.80,–,8.00,Cc1cc(C(=O)Nc2nc3cccc(C(F)(F)F)c3n2[C@@H]2CCCCN(C(=O)/C=C/CN(C)C)C2)cc(C)n1 [Example 17-188]
8.52,< 0.001,0.004,6.86,9.00,–,9.00,"C=CC(=O)N1CCCC[C@@H](n2c(NC(=O)c3cc(C)nc(C)c3)nc3ccc(OCCN4CCCC4)c(Cl)c32)C1 [Example 15, (R)—N-(1-(1-acryloylazepan-3-yl)-7-chloro-6-(2-(pyrrolidin-1-yl)ethoxy)-1H-benzo[d]imidazol-2-yl)-2,6-dimethylisonicotinamide]"
7.17,0.006,0.068,6.24,7.39,–,7.80,C/C=C/C(=O)N1CCCC[C@@H](n2c(NC(=O)c3ccnc(C)c3)nc3ccc(OCCN4CCCC4)c(Cl)c32)C1 [Example 17-194]
6.74,0.007,0.116,5.15,7.44,–,7.35,C/C=C/C(=O)N1CCCC[C@@H](n2c(NC(=O)c3cc(C)nc(C)c3)nc3ccc(OCCN4CCCC4)c(Cl)c32)C1 [Example 17-195]
8.70,< 0.001,0.002,7.36,9.00,–,9.00,C=CC(=O)N1CCCC[C@@H](n2c(NC(=O)c3ccnc(C)c3)nc3ccc(OCCN4CCCC4)c(Cl)c32)C1 [Example 17-193]
9.00,< 0.001,0.003,7.11,9.00,–,9.00,C=CC(=O)N1CCCC[C@@H](n2c(NC(=O)c3cc(C)nc(C)c3)nc3cc(CN4CCN(C(C)=O)CC4)cc(C)c32)C1 [Example 17-181]
